Starred links: 1 amine or outer side, 2 acyl side, 3 side chain; linkers in the order of their positions; H or OH if unused. Positions of bridges follow the written chain, without caps; N, C: chain ends. Non-standard residues stand in square brackets, D forms with d. Residues, ends and D or L forms follow the SMILES beside them. ξ: configuration not given here. *: point of attachment. X13 = O=C([C@@H]1C[C@H](N2CCC(F)(F)CC2)CN1[*:1])[*:2]; Phe(4-CF3) = N[C@@H](Cc1ccc(C(F)(F)F)cc1)C(=O)O; 3Pal(6-NMe2) = CN(C)c1ccc(C[C@H](N)C(=O)O)cn1; NMePhe(3-Cl) = CN[C@@H](Cc1cccc(Cl)c1)C(=O)O; NMePhe(4-Cl) = CN[C@@H](Cc1ccc(Cl)cc1)C(=O)O; X12 = CCCC[C@@H](O)[C@H](N[*:1])C(=O)[*:2]; NMehPhe = CN[C@@H](CCc1ccccc1)C(=O)O; Gly(NCH2CH2Ph) = O=C(O)CNCCc1ccccc1; X9 = O=C(CN(CCOc1ccccc1)[*:1])[*:2]; hhPhe = N[C@@H](CCCc1ccccc1)C(=O)O; NMeF = CN[C@@H](Cc1ccccc1)C(=O)O; NMeGABA = CN(CCCC(=O)[*:2])[*:1]; NMeI = CC[C@H](C)[C@H](NC)C(=O)O; dNMeF = CN[C@H](Cc1ccccc1)C(=O)O; CH2CH(OH)CF3 = OC(C*)C(F)(F)F; NMeL = CN[C@@H](CC(C)C)C(=O)O; Propyl(2R-OH) = C[C@@H](O)C*; ξNMeF = CNC(Cc1ccccc1)C(=O)O; NMeV = CN[C@H](C(=O)O)C(C)C; NMeAbu = CC[C@H](NC)C(=O)O; NPentylGly = CCCCCNCC(=O)O; NMeA = CN[C@@H](C)C(=O)O; Piperidide = C1CCN(*)CC1; NBuGly = CCCCNCC(=O)O; NPrGly = CCCNCC(=O)O; Sar = CNCC(=O)O; tBu = CC(C)(C)*; CHF2 = FC(F)*; Propyl = CCC*
Assay: Caco-2 membrane permeability, improved method as used in the following Examples (96-well, 20 to 24 h preincubation)
Type: in vitro ADME
Conditions: human, Caco-2, Caco-2
In short: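 Papp (cm/sec) was derived from LC/MS of basal samples collected 180 min after apical dosing in FaSSIF/HBSS pH 6.0 with 1% DMSO, against a basal HBSS pH 7.4 receiver containing 4% BSA. Three-week Caco-2 cultures were first preincubated with compound in DMEM+FaSSIF at 37 °C for 20–24 h.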

Compound | Papp A→B at 180 min [×10⁻⁶ cm/s]
CC(C)C[C@H]1C(=O)N[C@@H](COC(C)(C)C)C(=O)N(C)[C@@H](Cc2ccccc2)C(=O)N(C)[C@@H](C(C)C)C(=O)N[C@H](C(=O)N2CCCCC2)CC(=O)N[C@H](C)C(=O)N(C)[C@@H](Cc2ccccc2)C(=O)NC(COc2cccc(Cl)c2)C(=O)N(C)[C@@H](C(C)C)C(=O)N[C@@H]([C@@H](C)O)C(=O)N(C)CC(=O)N1C (stereo partly drawn) [pd343] | 2.2
CC(C)C[C@@H]1NC(=O)[C@H](CC(C)C)N(C)C(=O)CCCN(C)C(=O)C[C@@H](C(=O)N2CCCCC2)NC(=O)[C@H](CC(C)C)N(C)C(=O)[C@H](CC(C)C)N(C)C(=O)[C@H]([C@@H](C)O)NC(=O)[C@H](CC(C)C)N(C)C(=O)[C@H](Cc2ccc(N(C)C)nc2)NC(=O)[C@H](Cc2ccccc2)N(C)C(=O)[C@H](CC(C)C)N(C)C1=O [pd397] ([NMeGABA][NMeL]L[NMeL][NMeF][3Pal(6-NMe2)][NMeL]T[NMeL][NMeL]D-Piperidide; lactam N-11) | 1.2
CC[C@H](C)[C@@H]1NC(=O)[C@H](CC(C)C)N(C)C(=O)CN(C)C(=O)C[C@@H](C(=O)N2CCCCC2)NC(=O)[C@H](C(C)C)N(C)C(=O)[C@H](Cc2ccc(OC(F)F)cc2)NC(=O)[C@H](CC(C)C)N(C)C(=O)[C@H](Cc2ccccc2)N(C)C(=O)CN(C)C(=O)[C@H]([C@@H](C)O)NC(=O)[C@H](CC(C)C)N(C)C1=O [pd481] ([Sar][NMeL]I[NMeL]T[Sar][NMeF][NMeL]Y(CHF2)[NMeV]D-Piperidide; lactam N-11) | 3.8
CC[C@H](C)[C@H]1C(=O)N[C@@H]([C@@H](C)O)C(=O)N(C)CC(=O)N(C)[C@@H](CC(C)C)C(=O)N[C@H](C(=O)N2CCCCC2)CC(=O)N(C)[C@@H](C)C(=O)NC(COc2cccc(Cl)c2)C(=O)N(C)[C@@H](CC(C)C)C(=O)N(C)[C@@H](Cc2ccccc2)C(=O)N[C@@H](C)C(=O)N(C)[C@@H](Cc2ccccc2)C(=O)N1C (stereo partly drawn) [pd344] | 1.3
CC[C@H](C)[C@@H]1NC(=O)[C@H](Cc2ccccc2)N(C)C(=O)CN(C)C(=O)C[C@@H](C(=O)N2CCCCC2)NC(=O)[C@H](CC(C)C)N(C)C(=O)[C@H](COC(C)(C)C)NC(=O)[C@H](CC(C)C)N(C)C(=O)[C@H](CCc2ccccc2)N(C)C(=O)CN(C)C(=O)[C@H]([C@@H](C)O)NC(=O)[C@H](CC(C)C)N(C)C1=O [pd324] ([Sar][NMeF]I[NMeL]T[Sar][NMehPhe][NMeL]S(tBu)[NMeL]D-Piperidide; lactam N-11) | 3.3
CCCC[C@@H](O)[C@@H]1NC(=O)[C@H](Cc2ccccc2)N(C)C(=O)[C@H](Cc2ccccc2)N(C)C(=O)[C@H]([C@@H](C)CC)NC(=O)[C@H](CC(C)C)N(C)C(=O)CCCN(C)C(=O)C[C@@H](C(=O)N2CCCCC2)NC(=O)[C@H](CC(C)C)N(C)C(=O)[C@H](C)N(C)C(=O)[C@H]([C@@H](C)O)NC(=O)[C@H](CC(C)C)N(C)C1=O [pd468] ([NMeGABA][NMeL]I[NMeF][NMeF][X12][NMeL]T[NMeA][NMeL]D-Piperidide; lactam N-11) | 1
CC[C@H]1C(=O)N(C)[C@@H](Cc2ccccc2)C(=O)N[C@@H](CC(C)C)C(=O)N(C)[C@@H](Cc2ccccc2)C(=O)N(C)[C@@H](C(C)C)C(=O)N[C@@H](COCC(O)C(F)(F)F)C(=O)N(C)CC(=O)N(C)[C@@H](CC(C)C)C(=O)N[C@H](C(=O)N2CCCCC2)CC(=O)N(C)[C@@H](C)C(=O)N[C@@H](CC(C)C)C(=O)N1C (stereo partly drawn) [pd503] ([NMeA]L[NMeAbu][NMeF]L[NMeF][NMeV]S(CH2CH(OH)CF3)[Sar][NMeL]D-Piperidide; lactam N-11) | 2
CC(C)C[C@H]1C(=O)N[C@@H](COC(C)(C)C)C(=O)N(C)[C@@H](Cc2ccccc2)C(=O)N(C)[C@@H](CC(C)C)C(=O)N[C@H](C(=O)N2CCCCC2)CC(=O)N2C[C@@H](N3CCC(F)(F)CC3)C[C@H]2C(=O)N(C)[C@@H](Cc2cccc(Cl)c2)C(=O)N[C@@H](C(C)C)C(=O)N(C)[C@@H](C(C)C)C(=O)N[C@@H]([C@@H](C)O)C(=O)N(C)CC(=O)N1C [pd461] ([X13][NMePhe(3-Cl)]V[NMeV]T[Sar][NMeL]S(tBu)[NMeF][NMeL]D-Piperidide; lactam N-11) | 1.4
CC[C@H]1C(=O)N(C)[C@@H](Cc2ccccc2)C(=O)N[C@@H](C)C(=O)N(C)[C@@H](CC(C)C)C(=O)N(C)[C@@H](CC)C(=O)N[C@@H]([C@@H](C)O)C(=O)N(CCOc2ccccc2)CC(=O)N(C)[C@@H](CC(C)C)C(=O)N[C@H](C(=O)N2CCCCC2)CC(=O)N(C)[C@@H](C(C)C)C(=O)N[C@@H](CC(C)C)C(=O)N1C [pd420] ([NMeV]L[NMeAbu][NMeF]A[NMeL][NMeAbu]T[X9][NMeL]D-Piperidide; lactam N-11) | 4.5
CC[C@H](C)[C@@H]1NC(=O)[C@H](CC(C)C)N(C)C(=O)[C@@H](CC(C)C)NC(=O)C[C@@H](C(=O)N2CCCCC2)NC(=O)[C@H](CC(C)C)N(C)C(=O)[C@H](Cc2ccccc2)N(C)C(=O)[C@H](COC(C)(C)C)NC(=O)CN(CCc2ccccc2)C(=O)CN(C)C(=O)[C@H]([C@@H](C)O)NC(=O)[C@H](CC)N(C)C1=O [pd413] ([dL][NMeL]I[NMeAbu]T[Sar][Gly(NCH2CH2Ph)]S(tBu)[NMeF][NMeL]D-Piperidide; lactam N-11) | 1.5
CCCCCN1CC(=O)N(C)[C@@H](CC(C)C)C(=O)N[C@H](C(=O)N2CCCCC2)CC(=O)N(C)[C@@H](C(C)C)C(=O)N[C@@H](CC(C)C)C(=O)N(C)[C@@H](CC)C(=O)N(C)[C@@H](Cc2ccccc2)C(=O)N[C@@H](C)C(=O)N(C)[C@@H](Cc2ccccc2)C(=O)N(C)[C@@H](CC)C(=O)N[C@@H]([C@@H](C)O)C1=O [pd403] ([NMeV]L[NMeAbu][NMeF]A[NMeF][NMeAbu]T[NPentylGly][NMeL]D-Piperidide; lactam N-11) | 9
CCCCN1CC(=O)N(C)[C@H](Cc2ccccc2)C(=O)N(C)[C@@H](CC(C)C)C(=O)N[C@@H](COC(C)(C)C)C(=O)N(C)[C@@H](CC(C)C)C(=O)N[C@H](C(=O)N2CCCCC2)CC(=O)N(C)CC(=O)N(C)[C@@H](Cc2ccccc2)C(=O)N[C@@H](C(C)C)C(=O)N(C)[C@@H](CC(C)C)C(=O)N[C@@H](COC[C@@H](C)O)C1=O [pd496] ([Sar][NMeF]V[NMeL]S(Propyl(2R-OH))[NBuGly][dNMeF][NMeL]S(tBu)[NMeL]D-Piperidide; lactam N-11) | 1
CCCOC[C@@H]1NC(=O)[C@H](Cc2ccccc2)N(C)C(=O)[C@@H](C(C)C)NC(=O)C[C@@H](C(=O)N2CCCCC2)NC(=O)[C@H](CC(C)C)N(C)C(=O)[C@H](Cc2ccccc2)N(C)C(=O)[C@H](COC(C)(C)C)NC(=O)[C@H](CC(C)C)N(C)C(=O)CN(C)C(=O)[C@H]([C@@H](C)O)NC(=O)[C@H](CC(C)C)N(C)C1=O [pd327] ([dV][NMeF]S(Propyl)[NMeL]T[Sar][NMeL]S(tBu)[NMeF][NMeL]D-Piperidide; lactam N-11) | 3.1

Same assay, conditions: human, Caco-2, Caco-2 (cm/sec)

Compound | Papp A→B at 180 min [×10⁻⁶ cm/s]
CC(C)C[C@H]1C(=O)NCC(=O)N[C@H](C(=O)N(C)[C@@H](Cc2ccccc2)C(=O)N(C)[C@@H](Cc2ccccc2)C(=O)N[C@@H](C)C(=O)N2CCCCC2)CC(=O)N[C@@H](C)C(=O)N[C@@H]([C@@H](C)O)C(=O)N(C)[C@@H](C)C(=O)N(C)[C@@H](Cc2ccccc2)C(=O)N[C@@H](C(C)C)C(=O)N(C)[C@@H](Cc2ccccc2)C(=O)N1C [pd247] (AT[NMeA][NMeF]V[NMeF][NMeL]GD[NMeF][NMeF]A-Piperidide; lactam N-9) | 0.087
CCCN1CC(=O)N(C)[C@@H](CC(C)C)C(=O)N[C@@H](COC(C)(C)C)C(=O)N[C@H](C(=O)N2CCCCC2)CC(=O)N(C)[C@@H](CC(C)C)C(=O)N[C@@H](Cc2ccc(C(F)(F)F)cc2)C(=O)N(C)[C@@H](CC(C)C)C(=O)N(C)[C@@H]([C@@H](C)CC)C(=O)N[C@@H]([C@@H](C)O)C1=O [pd152] ([NMeL][Phe(4-CF3)][NMeL][NMeI]T[NPrGly][NMeL]S(tBu)D-Piperidide; lactam N-9) | 1.2
CC(C)C[C@H]1C(=O)N[C@@H](CCCc2ccccc2)C(=O)N(C)[C@@H](Cc2ccccc2)C(=O)N(C)[C@@H](C(C)C)C(=O)N[C@H](C(=O)N2CCCCC2)CC(=O)N[C@H](C)C(=O)N(C)C(Cc2ccccc2)C(=O)N[C@@H](C(C)C)C(=O)N(C)[C@@H](CC(C)C)C(=O)N[C@@H]([C@@H](C)O)C(=O)N(C)CC(=O)N1C (stereo partly drawn) [pd193] ([dA][ξNMeF]V[NMeL]T[Sar][NMeL][hhPhe][NMeF][NMeV]D-Piperidide; lactam N-11) | 1
CC[C@H](C)[C@@H]1NC(=O)[C@H](Cc2ccccc2)N(C)C(=O)CN(C)C(=O)C[C@@H](C(=O)N2CCCCC2)NC(=O)[C@H](C(C)C)N(C)C(=O)[C@H](COC(C)(C)C)NC(=O)[C@H](CC(C)C)N(C)C(=O)[C@H](Cc2ccc(Cl)cc2)N(C)C(=O)CN(C)C(=O)[C@H]([C@@H](C)O)NC(=O)[C@H](CC(C)C)N(C)C1=O [pd175] ([Sar][NMeF]I[NMeL]T[Sar][NMePhe(4-Cl)][NMeL]S(tBu)[NMeV]D-Piperidide; lactam N-11) | 1.1

Same assay, conditions: human, Caco-2, improved method, preincubation 20 to 24 hours; Papp, sample at 180 minutes; read-out: Caco-2

Compound | Papp A→B at 180 min [×10⁻⁶ cm/s]
CC(C)C[C@@H]1NC(=O)[C@H](Cc2ccc(Cl)cc2)N(C)C(=O)[C@H](CC(C)C)N(C)C(=O)[C@H](C(C)C)NC(=O)[C@H](C)N(C)C(=O)C[C@@H](C(=O)N2CCCCC2)NC(=O)[C@H](CC(C)C)N(C)C(=O)CN(C)C(=O)[C@H]([C@@H](C)O)NC(=O)[C@H](CC(C)C)N(C)C(=O)[C@H](Cc2ccccc2)N(C)C1=O [pd174] ([NMeA]V[NMeL][NMePhe(4-Cl)]L[NMeF][NMeL]T[Sar][NMeL]D-Piperidide; lactam N-11) | 1.3
